Source: patent US20020040203A1, “Method for transdermal or intradermal delivery of molecules” (priority 2000, published 2002)

Tests used:
[1] = cited from earlier work; for charge: pH 8 stated for PP-IX
[2] = Transport of model molecules through heat-stripped porcine stratum corneum by electroporation, Hanson Vertical Diffusion chamber; type: in vitro ADME; details: for transport across the SC to the acceptor chamber: negative pulses 375V, 1 msec, 1 Hz, up to 30 min
Description: Stratum corneum layer was obtained from porcine skin by heat treatment as follows. Fresh pieces of porcine skin were wrapped in aluminum foil and placed in a 60° C. water bath for 5 minutes. The SC was gently pulled away from the remaining tissue. The SC can be used directly or stored on glass microscope slides at 4° C. The SC was then used in a Hanson Vertical Diffusion chamber. This simple device is an accepted model system for studying transport through skin by those skilled in the art. This device contains two compartments which are filled with a suitable buffer (10 mM Tris, 100 mM NaCl, 1 mM EDTA at pH 8.0). One of the compartments acts as the donor and the other as the acceptor. The liposomes and the test molecule are added to the donor chamber. The outermost layer of the skin, the SC forms an effective barrier to the transport of biomolecules. The upper chamber was considered as the outer surface of the skin and the lower chamber as the skin directly below the SC. Platinum wires served as electrodes, one was placed in the upper chamber and the other in the lower chamber. Electric pulses were applied across the SC using a pulse generator.
Lipid formulations were prepared as follows. Dioleylphosphatidylglycerol and dioleylphosphatidyl choline was mixed at an approximate 1:1 molar ratio and dispersed in buffer by vigorous vortexing resulting in the formation of multilamellar lipid vesicles (MLV). The molecular weights of the molecules tested range from 200 to 600. The model molecules were chosen for their charge and their respective solubility.
[…] The model molecule as a solution in buffer was then added to the upper chamber. During the next 10 min no pulses were applied. An aliquot of the buffer was removed from the lower (acceptor) chamber. Pulses were next applied for 10, 20 and 30 min and aliquots removed from the lower chamber for analysis at 10, 20 and 30 min to determine delivery of the model molecule. Another aliquot was removed from the lower chamber 10 min after cessation of pulse application. In control studies, the SC was pre-pulsed for 10 min with buffer only (no lipid) and then the model molecule added in the upper chamber and pulsed for three further periods of 10 min each.
The amount of the model molecule transported to the acceptor chamber was measured in the aliquots removed at different times by using fluorescence spectroscopy.

[3] = cited from earlier work
[4] = SC pre-treated with DOPG:DOPC lipid formulation
[5] = absence of lipid formulation (pre-pulsed with buffer only)

Molecule	charge [1]	transport across the SC to the acceptor chamber [2, 4]	transport across the SC to the acceptor chamber [2, 5]	concentration in the lower chamber after cessation of pulse application ([2]; negative pulses, SC pre-treated with lipid formulation, 10 min without pulse)	effect of lipid formulation on transport ([2]; pulses of positive polarity, DOPG:DOPC MLV present)	solubility [1]	log P (partition coefficient between octanol and water) [3]
CN(C)c1ccc2nc3ccc(=[N+](C)C)cc-3sc2c1 [MB, Methylene Blue]	positively charged	large amount of MB transported across the SC	very little MB present in the acceptor chamber	continued increase in MB concentration in the lower chamber	inhibited the transport of MB		
C=CC1=C(C)c2cc3[nH]c(cc4nc(cc5[nH]c(cc1n2)c(C)c5CCC(=O)O)C(CCC(=O)O)=C4C)c(C)c3C=C [PP-IX, protoporphyrin IX]		an increase in the transport in the presence of the added lipid	significant transport of PP-IX across the SC			low solubility	
bleomycin							very negative
methylated protoprophyrin IX [MPP-IX]	no charge	enhanced transport	very low transport			soluble only in the presence of detergents	
